# Laboratory results published in publication PMC10825183 (Nature Communications, 2024).
# “And” between values parts separate entries of the source, which are not always exact repeats. Equal entries are not always repeated. Where two headings read alike, the source gives them in different places.
# What was measured:
# hHCN2 CNBD R662A [1] = molecular target: T1, hHCN2 CNBD R662A (Homo sapiens, UniProt Q9UL51, R662A); assay: biochemical
# [2] = test system: full-length HCN2 with a C-linker and CNBD from HCN4; conditions: ref Xu et al, JBC, 2010; cited from earlier work
# rbHCN4 ΔDE’ (1-723) = rbHCN4 ΔDE’ (1-723) (Oryctolagus cuniculus, UniProt Q9TV66)
# hHCN2 CNBD R662A [3] = molecular target: T1, hHCN2 CNBD R662A; conditions: cAMP titrant
# rbHCN4 ΔC-term (1-758) = rbHCN4 ΔC-term (1-758) (Oryctolagus cuniculus, UniProt Q9TV66); conditions: mean ± SEM
# Sequence of rbHCN4 ΔC-term (1-758) (Q9TV66 1-758, stated change not applied): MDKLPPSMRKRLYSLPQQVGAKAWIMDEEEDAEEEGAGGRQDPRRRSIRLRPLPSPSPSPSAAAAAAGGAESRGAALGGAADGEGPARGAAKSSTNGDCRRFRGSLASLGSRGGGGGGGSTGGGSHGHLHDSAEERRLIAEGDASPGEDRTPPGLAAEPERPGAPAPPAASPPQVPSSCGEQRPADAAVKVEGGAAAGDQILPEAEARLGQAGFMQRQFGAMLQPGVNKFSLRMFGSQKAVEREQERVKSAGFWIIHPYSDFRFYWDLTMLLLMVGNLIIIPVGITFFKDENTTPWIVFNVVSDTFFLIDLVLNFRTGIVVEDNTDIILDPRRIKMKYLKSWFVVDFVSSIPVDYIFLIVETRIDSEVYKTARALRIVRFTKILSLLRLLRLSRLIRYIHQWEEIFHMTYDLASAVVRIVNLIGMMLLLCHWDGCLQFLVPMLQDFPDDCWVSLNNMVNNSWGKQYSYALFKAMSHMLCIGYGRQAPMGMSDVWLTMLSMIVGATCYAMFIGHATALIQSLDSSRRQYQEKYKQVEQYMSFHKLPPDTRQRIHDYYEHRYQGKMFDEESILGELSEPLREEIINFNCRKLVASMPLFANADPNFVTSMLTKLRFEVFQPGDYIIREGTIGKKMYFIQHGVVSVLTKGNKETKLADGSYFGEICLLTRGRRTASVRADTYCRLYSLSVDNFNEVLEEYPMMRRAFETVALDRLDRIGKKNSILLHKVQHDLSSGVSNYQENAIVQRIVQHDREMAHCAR
# [4] = molecular target: isolated C-linker and CNBD; conditions: ref Chow et al (2012), cited from earlier work
# rbHCN4 D750A = rbHCN4 D750A (Oryctolagus cuniculus, UniProt Q9TV66, D750A)
# Sequence of rbHCN4 D750A (Q9TV66 whole entry D750A): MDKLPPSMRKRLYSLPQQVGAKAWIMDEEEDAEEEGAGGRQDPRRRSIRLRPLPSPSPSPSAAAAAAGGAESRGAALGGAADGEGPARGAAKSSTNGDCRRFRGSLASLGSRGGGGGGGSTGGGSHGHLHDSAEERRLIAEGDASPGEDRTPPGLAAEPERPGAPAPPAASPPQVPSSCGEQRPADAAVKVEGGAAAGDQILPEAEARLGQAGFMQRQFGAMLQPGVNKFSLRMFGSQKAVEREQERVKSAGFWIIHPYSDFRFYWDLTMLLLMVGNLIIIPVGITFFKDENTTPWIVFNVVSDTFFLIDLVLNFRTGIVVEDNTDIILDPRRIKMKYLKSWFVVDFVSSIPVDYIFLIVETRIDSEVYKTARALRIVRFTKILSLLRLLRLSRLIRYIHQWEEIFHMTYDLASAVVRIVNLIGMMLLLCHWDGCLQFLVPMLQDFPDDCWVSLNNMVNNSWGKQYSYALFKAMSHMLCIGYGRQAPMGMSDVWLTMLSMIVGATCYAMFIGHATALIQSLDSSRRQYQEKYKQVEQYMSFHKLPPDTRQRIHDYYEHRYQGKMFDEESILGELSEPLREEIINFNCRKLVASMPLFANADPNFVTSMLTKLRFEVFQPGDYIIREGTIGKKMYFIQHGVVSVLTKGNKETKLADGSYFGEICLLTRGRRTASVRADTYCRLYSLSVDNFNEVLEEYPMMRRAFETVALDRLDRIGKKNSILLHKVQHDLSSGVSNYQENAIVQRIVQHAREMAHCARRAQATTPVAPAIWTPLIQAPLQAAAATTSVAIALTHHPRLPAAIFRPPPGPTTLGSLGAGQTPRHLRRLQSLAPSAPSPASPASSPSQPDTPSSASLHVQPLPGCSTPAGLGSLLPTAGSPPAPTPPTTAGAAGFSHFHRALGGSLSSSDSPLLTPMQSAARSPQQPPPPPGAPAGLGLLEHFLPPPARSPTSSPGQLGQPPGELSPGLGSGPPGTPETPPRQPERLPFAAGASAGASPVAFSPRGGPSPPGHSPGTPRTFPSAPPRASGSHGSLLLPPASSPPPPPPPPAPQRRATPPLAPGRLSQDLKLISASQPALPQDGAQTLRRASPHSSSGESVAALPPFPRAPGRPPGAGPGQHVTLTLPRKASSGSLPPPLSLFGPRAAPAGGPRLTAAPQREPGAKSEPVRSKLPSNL
# rbHCN4 ΔE (1-733) = molecular target: T2, rbHCN4 ΔE (1-733) (Oryctolagus cuniculus, UniProt Q9TV66); assay: Whole-cell patch clamp in HEK293T cells, HCN4 ΔE; format: cell-based, rabbit
# T2 construct: rbHCN4 ΔE (1-733); expressed in transfected cells; host or cells: HEK293T
# T2 sequence (Q9TV66 1-733): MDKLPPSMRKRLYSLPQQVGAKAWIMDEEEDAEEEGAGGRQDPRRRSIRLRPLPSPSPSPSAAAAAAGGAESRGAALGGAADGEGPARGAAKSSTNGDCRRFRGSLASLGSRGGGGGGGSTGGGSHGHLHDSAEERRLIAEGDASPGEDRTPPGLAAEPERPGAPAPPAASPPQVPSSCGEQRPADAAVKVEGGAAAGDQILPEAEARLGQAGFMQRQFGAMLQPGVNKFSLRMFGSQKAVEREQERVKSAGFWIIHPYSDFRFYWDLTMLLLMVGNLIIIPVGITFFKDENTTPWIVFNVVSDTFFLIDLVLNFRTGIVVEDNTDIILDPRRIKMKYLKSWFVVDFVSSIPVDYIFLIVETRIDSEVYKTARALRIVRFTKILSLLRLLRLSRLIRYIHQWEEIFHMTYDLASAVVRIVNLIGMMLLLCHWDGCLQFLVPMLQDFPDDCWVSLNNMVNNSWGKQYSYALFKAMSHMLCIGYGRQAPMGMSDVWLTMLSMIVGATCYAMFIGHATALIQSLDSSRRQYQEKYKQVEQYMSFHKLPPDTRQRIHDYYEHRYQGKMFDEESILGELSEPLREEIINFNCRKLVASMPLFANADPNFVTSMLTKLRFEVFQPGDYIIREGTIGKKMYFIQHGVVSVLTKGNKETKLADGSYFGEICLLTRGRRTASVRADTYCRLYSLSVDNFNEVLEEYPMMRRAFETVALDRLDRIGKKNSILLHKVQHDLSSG
# [5] = 5 µM cAMP in pipette, mean ± SEM
# [6] = Hill fit of shift in V1/2 vs cAMP concentration
# T1 sequence (Q9UL51 521-706 R662A): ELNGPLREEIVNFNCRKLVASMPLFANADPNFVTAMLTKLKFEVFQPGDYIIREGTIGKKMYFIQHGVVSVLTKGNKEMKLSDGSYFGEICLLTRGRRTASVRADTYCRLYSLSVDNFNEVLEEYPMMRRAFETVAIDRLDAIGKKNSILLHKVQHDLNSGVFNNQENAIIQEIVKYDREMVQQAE
compound,measurement,setting,value
"Nc1ncnc2c1ncn2[C@@H]1O[C@@H]2COP(=O)(O)O[C@H]2[C@H]1O [cAMP, Adenosine 3′,5′-cyclic monophosphate]",Kd,"hHCN2 CNBD R662A [1]; KD of individual experiments (source data Fig. 4e), cAMP titrant, unit inferred",1080 nM and 980 nM and 1100 nM
same,Kd,"hHCN2 CNBD R662A [1]; KD, cAMP titrated into 20 µM CNBD, 25 °C, mean ± SEM, n = 3",1000 ± 30 nM
same,EC50,[2],240 nM
same,V1/2 with cAMP,rbHCN4 ΔDE’ (1-723); [5],-95.5 ± 0.8 mV
same,k (inverse slope factor) with cAMP,"rbHCN4 ΔDE’ (1-723); 5 µM cAMP, mean ± SEM",8.4 ± 0.1 mV
same,Hill coefficient (nH),rbHCN4 ΔDE’ (1-723); [6],1
same,stoichiometry (N),"hHCN2 CNBD R662A [3]; mean ± SEM, n = 3",0.9 ± 0.1
same,"N, representative sample (Fig. 4d)",hHCN2 CNBD R662A [3]; single ITC experiment,0.7
same,V1/2 with cAMP,rbHCN4 ΔC-term (1-758); 1 µM cAMP in pipette,-88.9 ± 1.5 mV
same,k (inverse slope factor) with cAMP,rbHCN4 ΔC-term (1-758); 1 µM cAMP,9.6 ± 0.5 mV
same,Kd,"[4]; read-out: binding affinity, higher affinity, protein at ~100uM or greater, predominantly tetramers",120 nM
same,Kd,"[4]; read-out: binding affinity, lower affinity, protein at ~100uM or greater, predominantly tetramers",1500 nM
same,Kd,"[4]; read-out: binding affinity, single lower affinity, first two helices of the C-linker removed, monomeric protein",~1800 nM
same,Kd,"[4]; read-out: binding affinity, single lower affinity, lower protein concentrations, tetramers less frequent",~1500 nM
same,V1/2 with cAMP,rbHCN4 D750A; [5],-96 ±1.7 mV
same,k (inverse slope factor) with cAMP,"rbHCN4 D750A; 5 µM cAMP, mean ± SEM",9 ± 0.5 mV
same,Hill coefficient (nH),rbHCN4 D750A; [6],0.8
same,V1/2 with cAMP,rbHCN4 ΔE (1-733); [5],-97.2 ± 0.6 mV
same,k (inverse slope factor) with cAMP,"rbHCN4 ΔE (1-733); 5 µM cAMP, mean ± SEM",9.1 ± 1.2 mV
same,V1/2 + cAMP,"rbHCN4 ΔE (1-733); 60 µM cAMP in pipette, mean ± SEM",-81.1 ± 0.8 mV
same,k + cAMP,"rbHCN4 ΔE (1-733); 60 µM cAMP, mean ± SEM",9.8 ± 0.8 mV
same,Hill coefficient (nH),rbHCN4 ΔE (1-733); [6],0.9
